Results reported in PubChem BioAssay (NCI).
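GI50: concentration for 50% inhibition of growth. TGI denotes the concentration required for complete inhibition of growth.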

What was measured:
Assay in all cases: inhibition of tumour cell growth, NCI panel, 384-well format
[1] = tested on: HL-60(TB) leukemia
[2] = tested on: OVCAR-3 ovarian
[3] = tested on: SK-MEL-28 melanoma
[4] = tested on: SF-295 CNS
[5] = tested on: MOLT-4 leukemia
[6] = tested on: OVCAR-8 ovarian
[7] = tested on: M14 melanoma
[8] = tested on: MDA-MB-468 breast
[9] = tested on: NCI-H460 NSCLC
[10] = tested on: KM12 colon
[11] = tested on: IGROV1 ovarian
[12] = tested on: NCI-H23 lung
[13] = tested on: MCF7 breast

NC(=O)c1cccc2cn(-c3ccc([C@@H]4CCCNC4)cc3)nc12
GI50 [1]: 1.85 µM
TGI [1]: 3.88 µM
GI50 [2]: 18.3 µM
TGI [2]: 33 µM
GI50 [3]: 16.2 µM
TGI [3]: 29.9 µM
GI50 [4]: 2.64 µM
TGI [4]: 7.79 µM
GI50 [5]: 1.49 µM
TGI [5]: 2.83 µM
GI50 [6]: 7.24 µM
TGI [6]: 20.6 µM
GI50 [7]: 4.68 µM
TGI [7]: 15.8 µM
GI50 [8]: 1.49 µM
TGI [8]: 4.17 µM
GI50 [9]: 3.06 µM
TGI [9]: 13.4 µM
GI50 [10]: 14.7 µM
TGI [10]: 28.9 µM
GI50 [11]: 12.9 µM
TGI [11]: 27.2 µM
GI50 [12]: 5.93 µM
TGI [12]: 19.6 µM
GI50 [13]: 6.48 µM
TGI [13]: 18.8 µM
